Experimental data taken from patent US12624018B1, “Inhibitors of RIPK2 and medical uses thereof” (Odyssey Therapeutics, Inc., priority 2022, dated 2026).
Like-named read-outs stand apart in the source and are kept apart here.

What was measured:
RIPK2 enzyme = target: T1, RIPK2 enzyme (Homo sapiens, UniProt O43353); experiment: RIPK2 inhibition (ADP-Glo Kinase Assay); type: biochemical; conditions: RIPK2 5 nM, ATP 150 μM, MBP substrate, read-out: RIPK2 IC50
T1 construct: purchased Carna 09-128
Outline: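 Swine MBP substrate; compound and 5 nM RIPK2 first mixed for 30 min at room temperature; buffer pH 7.5 HEPES 50 mM with 10 mM MgCl2, 2 mM DTT, 1 mM EGTA, Brij-35, BSA.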

human NOD2 signaling = experiment: Inhibition of human NOD2 signaling in HEK-Blue-hNOD2 cells (L18-MDP stimulated, SEAP reporter); type: cell-based; conditions: NOD2 ligand stimulation, SEAP reporter, read-out: hNOD2 IC50
Procedure: Materials: Human NOD32-expressing 1TEK293 cells, HEK-Blue™-hNOD2 cells, were developed by Invivogen (catalogue number: hkb-hnod2) using co-transfection of the human NOD2 gene and an optimized secreted embryonic alkaline phosphatase (SEAP) reporter gene into HTEK293 cells. The cell maintenance medium consisted of DMEM (Giboc, 21063-029), heat inactivated FBS, penicillin (100 U/mL), streptomycin (100 μg/mL), Normocin (100 μg/mL), Blasticidin (30 μg/mL), and Zeocin (100 μg/mL). HEK-Blue™-hNOD2 cells were transferred to assay medium consisting of DMEM (Giboc, 21063-029), heat inactivated FBS, penicillin (100 U/mL) and streptomycin (100 μg/mL) prior to stimulation. Stimulation with a NOD2 ligand, L18-MDP (Invivogen, catalogue number: tlrl-lmdp) activated NF-κB and AP-1 which induced the production of SEAP. Levels of SEAP were determined with HEK-Blue™ Detection (referred to as QUANTI-Blue solution), a cell culture medium that allows for real-time detection of SEAP. QUANTI-Blue solution was prepared by adding 1 mL of QB reagent and 1 mL of QB buffer to 98 mL of sterile H2O. Test compounds were prepared into a 10 mM DMSO solution and were serially diluted into 10 points using a 3-fold dilution in a 384 well plate using a TECAN EVO200.
Method: In a 384 well plate, 40 nL of test compound was dispensed using Echo550. HEK-Blue™-hNOD2 cells (Invivogen) were prepared into a cell suspension and 40 μL of the cell suspension (12500 cells per well) was dispensed into the 384 well plate. To activate NOD2 signaling, 40 nL of L18-MDP (final concentration of 0.5 ng/mL) was added and the plate was incubated at 37° C. in a CO2 incubator for 24 hours. After the 24-hour incubation, 5 μL of the induced HEK-Blue hNOD2 cell supernatant was transferred to a new 384-well plate, centrifuged, and 45 μL of QUANTI-Blue solution was added per well and incubated for 3 hours at 37° C. SEAP levels were measured using an Ensight at 620 nm. Percent inhibition of NOD2 signaling was determined using the following equation: (high control−test compound signal)/(High control−low control)×100. The reaction high control was determined using wells with DMSO, cells, L18-MDP, and QUANTI-Blue solution. The reaction low control was determined using wells with DMSO, cells, and QUANTI-Blue solution. 4-parametric curve fit was used to determine the test compound concentration that results in 50% reduction of L18-MDP-driven human NOD2 signaling.
Using the assay described above, inhibition of hNOD2 signaling was also evaluated for GSK 2983559 (Haile at al., J. Med. Chem. 2019, 62, 14, 6482-6494), a known RIPK2 kinase inhibitor: […]

[1] = Homo sapiens, HEK-Blue hNOD2, HEK-Blue-hNOD2 cells

T1 sequence (O43353 1-299 limits assumed): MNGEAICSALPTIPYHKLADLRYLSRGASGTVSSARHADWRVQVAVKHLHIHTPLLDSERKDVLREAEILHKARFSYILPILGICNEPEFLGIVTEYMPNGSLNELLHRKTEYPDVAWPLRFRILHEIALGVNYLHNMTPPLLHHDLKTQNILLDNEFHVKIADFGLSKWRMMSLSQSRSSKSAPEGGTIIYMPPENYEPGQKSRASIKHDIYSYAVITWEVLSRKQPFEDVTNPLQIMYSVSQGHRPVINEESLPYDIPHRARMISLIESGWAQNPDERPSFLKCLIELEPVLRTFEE

| SMILES | IC50 (RIPK2 enzyme) [nM] | IC50 (human NOD2 signaling; [1]) [nM] | IC50 (human NOD2 signaling; HEK-Blue-hNOD2 cells) [nM] |
| --- | --- | --- | --- |
| Cc1c(Oc2ccnc3ccc(S(=N)(=O)C4CCC4)cc23)ccc(CC(=O)Nc2cnn(C(C)(C)C)c2)c1F (single isomer, unassigned) [Compound 541, N-(1-(tert-butyl)-1H-pyrazol-4-yl)-2-(4-((6-(cyclobutanesulf-onimidoyl)quinolin-4-yl)oxy)-2-fluoro-3-methylphenyl) acetamide] | < 2.5 | 0.3 | – |
| CC(C)(C)n1cc(NC(=O)Cc2cc(Cl)c(Oc3ccnc4ccc(CS(C)(=O)=O)cc34)cc2F)cn1 [Compound 561, N-(1-(tert-butyl)-1H-pyrazol-4-yl)-2-(5-chloro-2-fluoro-4-((6-((methylsulfonyl)methyl)quinolin-4-yl)oxy)phenyl)acetamide] | < 2.5 | 15.4 | – |
| Cc1cc(CC(=O)Nc2cnn(C(C)(C)C)c2)cc(F)c1Oc1ccnc2cc(F)c(C(N)=O)cc12 [Compound 598, 4-(4-(2-((1-(tert-butyl)-1H-pyrazol-4-yl)amino)-2-oxoethyl)-2-fluoro-6-methylphenoxy)-7-fluoroquinoline-6-carboxamide] | < 2.5 | 2.3 | – |
| Cc1c(Oc2ccnc3ccc(S(=N)(=O)C4CCC4)cc23)ccc(CC(=O)Nc2cnn(C(C)(C)C)c2)c1F (single isomer, unassigned) [Compound 542, N-(1-(tert-butyl)-1H-pyrazol-4-yl)-2-(4-((6-(cyclobutanesulf-onimidoyl)quinolin-4-yl)oxy)-2-fluoro-3-methylphenyl) acetamide] | < 2.5 | – | 0.2 |
| CC(C)(C)n1cc(NC(=O)Cc2cc(Cl)c(Oc3ccnc4ccc(S(=N)(=O)C5CC5)cc34)cc2F)cn1 (single isomer, unassigned) [Compound 533, N-(1-(tert-butyl)-1H-pyrazol-4-yl)-2-(5-chloro-4-((6-(cyclopropanesul-fonimidoyl)quinolin-4-yl)oxy)-2-fluorophenyl) acetamide] | < 2.5 | 10.4 | – |
| Cc1cc(CC(=O)Nc2cnn(C(C)C(F)(F)F)c2)ccc1Oc1ccnc2ccc(S(C)(=O)=O)cc12 (single isomer, unassigned) [Compound 594, 2-(3-methyl-4-((6-(methylsulfonyl)quinolin-4-yl)oxy)phenyl)-N-(1-(1,1,1-trifluoropropan-2-yl)-1H-pyrazol-4-yl)acetamide] | < 2.5 | 27 | – |
| Cc1c(Oc2ccnc3ccc(C4(S(C)(=O)=O)CC4)cc23)cc(F)c(CC(=O)Nc2cnn(C(C)(C)C)c2)c1F [Compound 607, N-(1-(tert-butyl)-1H-pyrazol-4-yl)-2-(2,6-difluoro-3-methyl-4-((6-(1-(methylsulfonyl)cyclopropyl)quinolin-4-yl)oxy)phenyl)acetamide] | 3.5 | 6.1 | – |
| Cc1cc(CC(=O)Nc2cnn(C(C)(C)C)c2)ccc1Oc1ccnc2ccc(S(=N)(=O)C(C)(C)C)cc12 (single isomer, unassigned) [Compound 550, N-(1-(tert-butyl)-1H-pyrazol-4-yl)-2-(3-methyl-4-((6-(2-methylpropan-2-ylsulfonimidoyl)quinolin-4-yl)oxy)phenyl) acetamide] | < 2.5 | – | 11 |
| [2H]C([2H])([2H])C(n1cc(NC(=O)Cc2cc(C)c(Oc3ccnc4cc(F)c(C(=O)NC)cc34)c(F)c2)cn1)(C([2H])([2H])[2H])C([2H])([2H])[2H] [Compound 601, 7-fluoro-4-(2-fluoro-6-methyl-4-(2-((1-(2-(methyl-d3)propan-2-yl-1,1,1,3,3,3-d6)-1H-pyrazol-4-yl)amino)-2-oxoethyl)phenoxy)-N-methylquinoline-6-carboxamide] | < 2.5 | 1.4 | – |
| Cc1cc(CC(=O)Nc2cnn(C(C)(C)C)c2)ccc1Oc1ccnc2ccc(S(=N)(=O)C(C)(C)C)cc12 (single isomer, unassigned) [Compound 549, N-(1-(tert-butyl)-1H-pyrazol-4-yl)-2-(3-methyl-4-((6-(2-methylpropan-2-ylsulfonimidoyl)quinolin-4-yl)oxy)phenyl) acetamide] | < 2.5 | 18.2 | – |
| CC(C)(C)n1cc(NC(=O)Cc2ccc(Oc3ccnc4ccc(C(N)=O)cc34)c(C(F)F)c2)cn1 [Compound 462, 4-(4-(2-((1-(tert-butyl)-1H-pyrazol-4-yl)amino)-2-oxoethyl)-2-(difluoromethyl)phenoxy) quinoline-6-carboxamide] | < 2.5 | 7.5 | – |

Next, values leading:

| IC50 (RIPK2 enzyme) [nM] | IC50 (human NOD2 signaling; [1]) [nM] | IC50 (human NOD2 signaling; HEK-Blue-hNOD2 cells) [nM] | SMILES |
| --- | --- | --- | --- |
| < 2.5 | 1.5 | – | Cc1cc(CC(=O)Nc2cnn(C(C)(C)C)c2)c(F)cc1Oc1ccnc2ccc(C(=O)NC3(C)COC3)cc12 [Compound 514, 4-(4-(2-((1-(tert-butyl)-1H-pyrazol-4-yl)amino)-2-oxoethyl)-5-fluoro-2-methylphenoxy)-N-(3-methyloxetan-3-yl)quinoline-6-carboxamide] |
| < 2.5 | – | 6 | CC(C)(C)n1cc(NC(=O)Cc2cc(Cl)c(Oc3ccnc4ccc(S(=N)(=O)C5CC5)cc34)cc2F)cn1 (single isomer, unassigned) [Compound 534, N-(1-(tert-butyl)-1H-pyrazol-4-yl)-2-(5-chloro-4-((6-(cyclopropanesulfonimidoyl)quinolin-4-yl)oxy)-2-fluorophenyl) acetamide] |
| < 2.5 | 2 | – | [2H]C([2H])([2H])NC(=O)c1cc2c(Oc3ccc(CC(=O)Nc4cnn(C(C)(C)C)c4)cc3C(F)F)ccnc2cc1F [Compound 577, 4-(4-(2-((1-(tert-butyl)-1H-pyrazol-4-yl)amino)-2-oxoethyl)-2-(difluoromethyl)phenoxy)-7-fluoro-N-(methyl-d3)quinoline-6-carboxamide] |
| < 2.5 | 26 | – | Cc1cc(CC(=O)Nc2cnn(C(C)(C)C)c2)c(F)cc1Oc1ccnc2ccc(-c3c[nH]nc3O)cc12 [Compound 478, N-(1-(tert-butyl)-1H-pyrazol-4-yl)-2-(2-fluoro-4-((6-(3-hydroxy-1H-pyrazol-4-yl)quinolin-4-yl)oxy)-5-methylphenyl)acetamide] |
| < 2.5 | 6.9 | – | CNC(=O)c1cc2c(Oc3cc(F)c(CC(=O)Nc4cnn(C(C)(C)C)c4)cc3C)ccnc2cc1Cl [Compound 565, 4-(4-(2-((1-(tert-butyl)-1H-pyrazol-4-yl)amino)-2-oxoethyl)-5-fluoro-2-methylphenoxy)-7-chloro-N-methylquinoline-6-carboxamide] |
| < 2.5 | – | 16.9 | N=S(=O)(c1ccc2nccc(Oc3cc(F)c(CC(=O)Nc4cnn(C56CC(C5)C6)c4)cc3Cl)c2c1)C1CC1 (single isomer, unassigned) [Compound 532, N-(1-(bicyclo[1.1.1]pentan-1-yl)-1H-pyrazol-4-yl)-2-(5-chloro-4-((6-(cyclopropanesul-fonimidoyl)quinolin-4-yl)oxy)-2-fluorophenyl) acetamide] |
| < 2.5 | 0.8 | – | Cc1c(Oc2ccnc3ccc(S(=N)(=O)C4CC4)cc23)ccc(CC(=O)Nc2cnn(C34CC(C3)C4)c2)c1F (single isomer, unassigned) [Compound 528, N-(1-(bicyclo[1.1.1]pentan-1-yl)-1H-pyrazol-4-yl)-2-(4-((6-(cyclopropanesul-fonimidoyl)quinolin-4-yl)oxy)-2-fluoro-3-methylphenyl) acetamide] |
